A short description of data set [1]: Persistence of microbubbles in water at 37° C. observed by ultrasound scan. The format is physicochemical. Here is the method:
The relationship between a calculated Q-value for a given gas and the persistence of microbubbles of that gas was studied to determine what Q-value would be a lower limit for utility as an ultrasound contrast agent. […] Five mL of a 20% sorbitol solution was taken up in a 10 mL syringe connected to a three way stopcock. A 10 mL syringe, containing 2 cubic centimeters of the subject gas (or low boiling liquid, as pertinent) was attached to the syringe containing the sorbitol solution. The sorbitol and gas or liquid are rapidly mixed 25-times to create a suspension of microbubbles or dispersed liquid and then rapidly added to the water. […] Ultrasound scans before, during and after the addition were made with a Hewlett-Packard Model Sonos 500 ultrasound scanner operating at 5 MHz. The time during which the microbubbles could be observed was recorded. […] The experimental Q-values were obtained by dividing the measured persistence of a given gas by the measured persistence for air.

For data set [2] the following is noted: cited from earlier work; for DENSITY: gas density; for SOLUBILITY: in water, fluorocarbons estimated by extrapolation relative to perfluoro-n-pentane; for boiling point: standard pressure conditions.
The nature of data set [3]: Physical properties of gases: density, solubility in water, diffusivity, molar volume, boiling point. The format is physicochemical. Particulars: (*) estimated from the known density of homologous fluorocarbons.
Source text: Different methods for determining or estimating values for the individual parameters of density, diffusivity, and solubility may be needed depending on the chemical structure of the gas. Values for these parameters may or may not be available from known scientific literature sources such as the Gas Encyclopedia or the tabulations published by the American Chemical Society. Values for the density of most gases are readily available from sources such as the Handbook of Chemistry and Physics. […] Additionally, the solubility in water and molar volume of some gases has been measured with accuracy. In many cases however, calculations for the numerical values for molar volume and solubility may need to be calculated or estimated to provide the data used to determine the value of the Q coefficient for an individual gas by the method described above.
To determine the Q value for several gases, the solubility, molar volume and density of the individual gases are determined and the values are substituted into Equations (7) or (8) above.
This method for estimating the gas solubility of fluorocarbons uses extrapolation of the experimental data of Kabalnov AS, Makarov KN, and Scherbakova OV. […] For a homologous series of non-branched fluorocarbons, the gas solubility may be estimated by increasing or reducing this value by a factor of about 8.0 for each increase or reduction in the number of additional —CF2— groups present in the molecule.
The molar volume of a gas can be estimated by identifying the number and type of atoms that make up the molecule of gas in question. By determining the number and type of atoms present in the molecule and how the individual atoms are bound to each other, known values may be applied for the molecular volume of the individual atoms. By considering the contribution of each individual atom and its frequency of occurrence, one may calculate the total molar volume for a particular gas molecule.
[4] abbreviates: about 100 micron microbubbles, 20% sorbitol, added to water at 37° C., 5 MHz ultrasound.

The source of these data is US6875420B1, “Method of ultrasound imaging” (Amersham Health AS, priority 1991, dated 2005).

Read-outs that look alike come from different tables or passages of the source. Some results are limits rather than exact numbers.

The compound `CCOCC` [Ethyl ether] gave a PERSISTENCE of microbubbles in data set [1] (setting [4]) of 0.1 min. Besides, in data set [2], the DENSITY was 2.55 kg/m3 and the SOLUBILITY is 977,058 micromoles/liter.
Turning to `[Ar]` [Argon], in data set [2], the DENSITY was 1.78 kg/m3.
On to `[He]` [Helium], for which, in data set [1] (setting [4]), the PERSISTENCE of microbubbles came to 2.0 min. Besides, in data set [2], the DENSITY was 0.18 kg/m3 and the SOLUBILITY is 388 µmol/L.
Consider `[Kr]` [Krypton], for which the DENSITY in data set [2] was 3.8 kg/m3.
With `CCCC` [n-Butane], the PERSISTENCE of microbubbles in data set [1] is reported as 1.5 min (2.6). Besides, in data set [2], the DENSITY was 2.05 kg/m3 and the SOLUBILITY is 6696 µmol/L.
Regarding `FC(F)(F)C(F)(F)C(F)(F)C(F)(F)F` [Decafluorobutane], in data set [2], the DENSITY is on record as 11.21 kg/m3 and the SOLUBILITY was 32 µmol/L.
For the compound `O=C=O` [Carbon Dioxide], in data set [2], the DENSITY is listed as 1.98 kg/m3 and the SOLUBILITY was 33000 µmol/L.
Consider `FC(F)(F)C(F)(F)C(F)(F)C(F)(F)C(F)(F)C(F)(F)F` [Perfluorohexane, reference compound], for which, in data set [2], the boiling point is on record as 59-60 degrees Centigrade.
Consider `FC(F)(F)C(F)(F)F` [Hexafluoroethane], for which the DENSITY in data set [2] is recorded as 8.86 kg/m3.
For the compound `[Ne]` [Neon], in data set [2], the DENSITY is given as 0.90 kg/m3 and the SOLUBILITY is 434 µmol/L.
Take `[Xe]` [Xenon]: in data set [2], the DENSITY is listed as 5.90 kg/m3.
For `CCCCC` [Pentane], the PERSISTENCE of microbubbles in data set [1] (setting [4]) is reported as 20.6 min. The SOLUBILITY in data set [2] is 1674 µmol/L.
Consider `FC(F)=C(F)C(F)=C(F)F` [Hexafluorobuta-1,3-diene], for which, in data set [3], the DENSITY is recorded as 9 (*) kg/m3.
Take `FS(F)(F)(F)(F)F` [Sulfur Hexafluoride]: the DENSITY in data set [2] was 5.48 kg/m3.
In the case of `CC` [Ethane], the DENSITY in data set [2] is listed as 1.05 kg/m3.
Take `FC(=C(F)C(F)(F)F)C(F)(F)F` [Octafluoro-2-butene]: the DENSITY in data set [3] is 10 (*) kg/m3.
As for `FC(F)(F)C#CC(F)(F)F` [Hexafluoro-2-butyne], in data set [3], the DENSITY is listed as 9 (*) kg/m3.
With `FC1(F)C(F)(F)C(F)(F)C1(F)F` [Octafluorocyclobutane], in data set [2], the DENSITY is 9.97 kg/m3 and the SOLUBILITY was 220 µmol/L.
As to Hexafluoropropane, the DENSITY in data set [2] was 10.3 kg/m3.
For the compound `FC(F)(F)C(F)(F)C(F)(F)C(F)(F)C(F)(F)F` [Dodecafluoropentane], the PERSISTENCE of microbubbles in data set [1] (setting [4]) is > 5760 min. Besides, in data set [2], the water solubility was 4.0×10^−6 moles per liter, the DENSITY is listed as 12.86 kg/m3 and the boiling point is given as 29.5 degrees Centigrade.
Regarding `FC(F)(F)C(F)(F)C(F)(F)F` [Octafluoropropane], in data set [2], the DENSITY was 10.3 kg/m3 and the SOLUBILITY was 260 µmol/L.
The compound `CCC` [Propane] registered a PERSISTENCE of microbubbles in data set [1] (setting [4]) of 3.2 min. Moreover, the DENSITY in data set [2] was 2.02 kg/m3.
